Measured values published in patent publication US10738028B2, “Spiro three-membered ring, spiro five-membered ring peptide deformylase inhibitor and use thereof in antibacteria and anti-tumor” (priority 2016, dated 2020).
≈ marks a conversion by molar mass, not a printed value. Where two headings read alike, the source gives them in different places.

How the values were obtained:
Type in all cases: cell-based
[1] = tested on: Enterococcus faecalis (EFA); assay: MIC, two-fold agar dilution (CLSI), clinical isolates
In short: (§1)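 CLSI two-fold agar dilution; MIC of test samples read per tested strain.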

[2] = tested on: Enterococcus faecium (EFM); assay: as above
In short: as §1

[3] = tested on: Escherichia coli (including ESBLs, non-ESBLs); assay: as above
In short: as §1

[4] = tested on: Moraxella catarrhalis (BCA); assay: as above; conditions: for Anti-bacterial activity (MIC), strain BCA 14-10: clinical isolate BCA 14-10
In short: as §1

[5] = tested on: Streptococcus pneoumoniae (SPN); assay: as above
In short: as §1

[6] = tested on: methicillin-resistant Staphylococcus aureus (MRSA); assay: as above
In short: as §1

[7] = tested on: methicillin-resistant Staphylococcus epidermidis (MRSE); assay: as above
In short: as §1

[8] = tested on: methicillin-sensitive Staphylococcus aureus (MSSA); assay: as above
In short: as §1

[9] = tested on: methicillin-sensitive Staphylococcus epidermidis (MSSE); assay: as above
In short: as §1

[10] = tested on: HCT-116 colorectal cancer cell line; assay: CCK-8 proliferation inhibition; conditions: concentration of 30 μM, 72 hours, CCK-8; for inhibition at 30 µM: Homo sapiens, HCT-116, 72 h
In short: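 Cells seeded at 2000 cells/well, cultured overnight at 37 °C, 5% CO2, then exposed to compound (DMSO; control 1‰ DMSO) for 72 h in McCoy's 5A with 10% newborn bovine serum. Viability read with 1:10 diluted CCK-8.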

[11] = tested on: A549 lung cancer cell line; assay: CCK-8 proliferation inhibition; conditions: Homo sapiens, A549, 72 h, concentration of 30 μM
In short: (§2)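 Plating at 2000 cells/well, then incubation overnight at 37° C. Next, a range of compound concentrations for 72 hours (control 1‰ DMSO). Finally, medium decanted and CCK-8 diluted 1:10 added.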

[12] = tested on: BEL-7402 liver cancer cell line; assay: CCK-8 proliferation inhibition; conditions: concentration of 30 μM; for Inhibition of proliferation, Liver cancer BEL-7402: 72 hours, 30 µM
In short: as §2

[13] = tested on: MGC-803 gastric cancer cell line; assay: CCK-8 proliferation inhibition; conditions: Homo sapiens, MGC-803, 72 h, concentration of 30 μM
In short: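 Cells seeded at 2000 cells/well, cultured overnight at 37 °C, 5% CO2, then exposed 72 h to compound dilutions in medium with 10% newborn bovine serum (1‰ DMSO control). Viability read with 1:10 diluted CCK-8 solution. Media: PC3 in F12; MGC-803 and Jurkat in 1640; MCF-7 in DMEM high glucose.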

[14] = read-out: HCT116 inhibition rate/%

With COC(=O)c1sccc1NC(=O)[C@@H]1CC2(CC2)CN1C(=O)[C@H](CC1CCCC1)CN(O)C=O [Example 34] the MIC (anti-bacterial activity) ([1]; strain EFA 15-1) was 4 µg/mL (≈ 8.38 µM), the MIC (anti-bacterial activity) ([1]; strain EFA 15-2) was 4 µg/mL (≈ 8.38 µM) and the MIC (anti-bacterial activity) ([1]; strain EFA 15-3) was 2 µg/mL (≈ 4.19 µM). For the same compound, the MIC (anti-bacterial activity) ([1]; strain EFA 15-4) was 4 µg/mL (≈ 8.38 µM), the MIC (anti-bacterial activity) ([1]; strain EFA 15-5) was 4 µg/mL (≈ 8.38 µM) and the MIC (anti-bacterial activity) ([1]; strain EFA 15-6) was 4 µg/mL (≈ 8.38 µM). It also gave an MIC (anti-bacterial activity) ([1]; strain EFA 15-9) of 4 µg/mL (≈ 8.38 µM), an MIC (anti-bacterial activity) ([2]; strain EFM 15-1) of 2 µg/mL (≈ 4.19 µM) and an MIC (anti-bacterial activity) ([2]; strain EFM 15-2) of 2 µg/mL (≈ 4.19 µM). For the same compound, the MIC (anti-bacterial activity) ([2]; strain EFM 15-3) was 0.25 µg/mL (≈ 0.523 µM), the MIC (anti-bacterial activity) ([2]; strain EFM 15-4) was 4 µg/mL (≈ 8.38 µM) and the MIC (anti-bacterial activity) ([2]; strain EFM 15-5) was 4 µg/mL (≈ 8.38 µM). It also gave an MIC (anti-bacterial activity) ([2]; strain EFM 15-6) of 4 µg/mL (≈ 8.38 µM), an MIC (anti-bacterial activity) ([3]; strain ECO+ 15-1) of 128 µg/mL (≈ 268 µM) and an MIC (anti-bacterial activity) ([3]; strain ECO+ 15-2) of 128 µg/mL (≈ 268 µM). For the same compound, the MIC (anti-bacterial activity) ([3]; strain ECO+ 15-3) was 128 µg/mL (≈ 268 µM), the MIC (anti-bacterial activity) ([3]; strain ECO+ 15-4) was 128 µg/mL (≈ 268 µM) and the MIC (anti-bacterial activity) ([3]; strain ECO− 15-1) was 128 µg/mL (≈ 268 µM). It also gave an MIC (anti-bacterial activity) ([3]; strain ECO− 15-2) of 128 µg/mL (≈ 268 µM), an MIC (anti-bacterial activity) ([3]; strain ECO− 15-3) of 128 µg/mL (≈ 268 µM) and an MIC (anti-bacterial activity) ([3]; strain ECO− 15-4) of 128 µg/mL (≈ 268 µM). For the same compound, the Anti-bacterial activity (MIC), strain BCA 14-10 [4] was 2 µg/mL, the MIC (anti-bacterial activity) ([4]; strain BCA 14-1) was 4 µg/mL (≈ 8.38 µM) and the MIC (anti-bacterial activity) ([4]; strain BCA 14-4) was 4 µg/mL (≈ 8.38 µM). For the same compound, the MIC (anti-bacterial activity) ([4]; strain BCA 14-5) was 1 µg/mL (≈ 2.09 µM), the MIC (anti-bacterial activity) ([4]; strain BCA 14-6) was 4 µg/mL (≈ 8.38 µM) and the MIC (anti-bacterial activity) ([4]; strain BCA 14-7) was 2 µg/mL (≈ 4.19 µM). For the same compound, the MIC (anti-bacterial activity) ([4]; strain BCA 14-8) was 2 µg/mL (≈ 4.19 µM), the MIC (anti-bacterial activity) ([5]; strain SPN 16-2) was 0.125 µg/mL (≈ 0.262 µM) and the MIC (anti-bacterial activity) ([5]; strain SPN 16-4) was 4 µg/mL (≈ 8.38 µM). For the same compound, the MIC (anti-bacterial activity) ([6]; strain MRSA 15-1) was 1 µg/mL (≈ 2.09 µM), the MIC (anti-bacterial activity) ([6]; strain MRSA 15-2) was 1 µg/mL (≈ 2.09 µM) and the MIC (anti-bacterial activity) ([6]; strain MRSA 15-3) was 1 µg/mL (≈ 2.09 µM). For the same compound, the MIC (anti-bacterial activity) ([6]; strain MRSA 15-4) was 0.5 µg/mL (≈ 1.05 µM), the MIC (anti-bacterial activity) ([7]; strain MRSE 15-1) was 0.25 µg/mL (≈ 0.523 µM) and the MIC (anti-bacterial activity) ([7]; strain MRSE 15-2) was 4 µg/mL (≈ 8.38 µM). The MIC (anti-bacterial activity) ([7]; strain MRSE 15-3) was 4 µg/mL (≈ 8.38 µM), the MIC (anti-bacterial activity) ([7]; strain MRSE 15-7) was 4 µg/mL (≈ 8.38 µM) and the MIC (anti-bacterial activity) ([8]; strain MSSA 15-3) was 1 µg/mL (≈ 2.09 µM). For the same compound, the MIC (anti-bacterial activity) ([8]; strain MSSA 15-4) was 1 µg/mL (≈ 2.09 µM), the MIC (anti-bacterial activity) ([8]; strain MSSA 15-5) was 1 µg/mL (≈ 2.09 µM) and the MIC (anti-bacterial activity) ([8]; strain MSSA 15-6) was 1 µg/mL (≈ 2.09 µM). For the same compound, the MIC (anti-bacterial activity) ([9]; strain MSSE 15-3) was 4 µg/mL (≈ 8.38 µM), the MIC (anti-bacterial activity) ([9]; strain MSSE 15-4) was 4 µg/mL (≈ 8.38 µM) and the MIC (anti-bacterial activity) ([9]; strain MSSE 15-5) was 4 µg/mL (≈ 8.38 µM). The MIC (anti-bacterial activity) ([9]; strain MSSE 15-6) was 1 µg/mL (≈ 2.09 µM), the inhibition at 30 µM ([10]; Table 5, read-out: Inhibition of proliferation, Colorectal cancer HCT116) was ≥ 30% and the inhibition at 30 µM [10, 14] was 36%. The inhibition at 30 µM [11] was 35%, the inhibition at 30 µM ([12]; Homo sapiens, Bel-7402, 72 h) was > 50% and the “Inhibition of proliferation, Liver cancer BEL-7402” value [12] was 63%. It also gave an inhibition at 30 µM [13] of 26%.
In the case of O=CN(O)C[C@@H](CC1CCCC1)C(=O)N1CC2(CC2)C[C@H]1C(=O)Nc1ncco1 [Example 36], the MIC (anti-bacterial activity) ([1]; strain EFA 15-1) is reported as 16 µg/mL (≈ 39.6 µM), the MIC (anti-bacterial activity) ([1]; strain EFA 15-2) is reported as 16 µg/mL (≈ 39.6 µM) and the MIC (anti-bacterial activity) ([1]; strain EFA 15-3) is reported as 16 µg/mL (≈ 39.6 µM). The MIC (anti-bacterial activity) ([1]; strain EFA 15-4) was 16 µg/mL (≈ 39.6 µM), the MIC (anti-bacterial activity) ([1]; strain EFA 15-5) was 16 µg/mL (≈ 39.6 µM) and the MIC (anti-bacterial activity) ([1]; strain EFA 15-6) was 16 µg/mL (≈ 39.6 µM). For the same compound, the MIC (anti-bacterial activity) ([1]; strain EFA 15-9) was 16 µg/mL (≈ 39.6 µM), the MIC (anti-bacterial activity) ([2]; strain EFM 15-1) was 16 µg/mL (≈ 39.6 µM) and the MIC (anti-bacterial activity) ([2]; strain EFM 15-2) was 8 µg/mL (≈ 19.8 µM). It also gave an MIC (anti-bacterial activity) ([2]; strain EFM 15-3) of 2 µg/mL (≈ 4.94 µM), an MIC (anti-bacterial activity) ([2]; strain EFM 15-4) of 8 µg/mL (≈ 19.8 µM) and an MIC (anti-bacterial activity) ([2]; strain EFM 15-5) of 8 µg/mL (≈ 19.8 µM). The MIC (anti-bacterial activity) ([2]; strain EFM 15-6) was 8 µg/mL (≈ 19.8 µM), the MIC (anti-bacterial activity) ([3]; strain ECO+ 15-1) was 8 µg/mL (≈ 19.8 µM) and the MIC (anti-bacterial activity) ([3]; strain ECO+ 15-2) was > 32 µg/mL. The MIC (anti-bacterial activity) ([3]; strain ECO+ 15-3) was > 32 µg/mL, the MIC (anti-bacterial activity) ([3]; strain ECO+ 15-4) was > 32 µg/mL and the MIC (anti-bacterial activity) ([3]; strain ECO− 15-1) was > 32 µg/mL. For the same compound, the MIC (anti-bacterial activity) ([3]; strain ECO− 15-2) was 32 µg/mL (≈ 79.1 µM), the MIC (anti-bacterial activity) ([3]; strain ECO− 15-3) was 32 µg/mL (≈ 79.1 µM) and the MIC (anti-bacterial activity) ([3]; strain ECO− 15-4) was 32 µg/mL (≈ 79.1 µM). The Anti-bacterial activity (MIC), strain BCA 14-10 [4] was 2 µg/mL, the MIC (anti-bacterial activity) ([4]; strain BCA 14-1) was 16 µg/mL (≈ 39.6 µM) and the MIC (anti-bacterial activity) ([4]; strain BCA 14-4) was 16 µg/mL (≈ 39.6 µM). The MIC (anti-bacterial activity) ([4]; strain BCA 14-5) was 4 µg/mL (≈ 9.89 µM), the MIC (anti-bacterial activity) ([4]; strain BCA 14-6) was 16 µg/mL (≈ 39.6 µM) and the MIC (anti-bacterial activity) ([4]; strain BCA 14-7) was 4 µg/mL (≈ 9.89 µM). The MIC (anti-bacterial activity) ([4]; strain BCA 14-8) was 8 µg/mL (≈ 19.8 µM), the MIC (anti-bacterial activity) ([5]; strain SPN 16-2) was 2 µg/mL (≈ 4.94 µM) and the MIC (anti-bacterial activity) ([5]; strain SPN 16-4) was 16 µg/mL (≈ 39.6 µM). The MIC (anti-bacterial activity) ([6]; strain MRSA 15-1) was 4 µg/mL (≈ 9.89 µM), the MIC (anti-bacterial activity) ([6]; strain MRSA 15-2) was 8 µg/mL (≈ 19.8 µM) and the MIC (anti-bacterial activity) ([6]; strain MRSA 15-3) was 4 µg/mL (≈ 9.89 µM). It also gave an MIC (anti-bacterial activity) ([6]; strain MRSA 15-4) of 8 µg/mL (≈ 19.8 µM), an MIC (anti-bacterial activity) ([7]; strain MRSE 15-1) of 4 µg/mL (≈ 9.89 µM) and an MIC (anti-bacterial activity) ([7]; strain MRSE 15-2) of 8 µg/mL (≈ 19.8 µM). The MIC (anti-bacterial activity) ([7]; strain MRSE 15-3) was 8 µg/mL (≈ 19.8 µM), the MIC (anti-bacterial activity) ([7]; strain MRSE 15-7) was 8 µg/mL (≈ 19.8 µM) and the MIC (anti-bacterial activity) ([8]; strain MSSA 15-3) was 8 µg/mL (≈ 19.8 µM). It also gave an MIC (anti-bacterial activity) ([8]; strain MSSA 15-4) of 8 µg/mL (≈ 19.8 µM), an MIC (anti-bacterial activity) ([8]; strain MSSA 15-5) of 8 µg/mL (≈ 19.8 µM) and an MIC (anti-bacterial activity) ([8]; strain MSSA 15-6) of 4 µg/mL (≈ 9.89 µM). It also gave an MIC (anti-bacterial activity) ([9]; strain MSSE 15-3) of 8 µg/mL (≈ 19.8 µM), an MIC (anti-bacterial activity) ([9]; strain MSSE 15-4) of 8 µg/mL (≈ 19.8 µM) and an MIC (anti-bacterial activity) ([9]; strain MSSE 15-5) of 8 µg/mL (≈ 19.8 µM). For the same compound, the MIC (anti-bacterial activity) ([9]; strain MSSE 15-6) was 8 µg/mL (≈ 19.8 µM), the inhibition at 30 µM [10, 14] was > 50% and the HCT116 inhibition rate/% ([10]; 30 µM) was 60%. For the same compound, the inhibition at 30 µM [11] was 26%, the “Inhibition of proliferation, Liver cancer BEL-7402” value [12] was 73% and the inhibition at 30 µM [13] was 46%.
